Where “and” joins values, the source holds several entries; their conditions need not be identical. Identical values can stand only once. Ends that are not written are not given here.
Assays:
[1] = tested on: HL60 promyelocytic leukemia (PML) cells; test: Annexin V/PI cell viability assay in HL60 cells; type: cell-based, human; settings: for EC50: HL60, Annexin V/PI viability, 48 hours, read-out: EC50 (μM) of ATF-5-Derived Polypeptides in Cancer Cells, HL60
Protocol: (§1) ST-3, reconstituted at a concentration of 10 mg/mL in 20 mM His, pH 7.5, was added to each well at a volume of 50 μL to a final concentration range of 0-80 μM. Cells were incubated with ST-3 for 48 hours at 37° C. Cell viability was quantified by flow cytometry using an Annexin V FITC apoptosis detection kit from Abcam. Briefly, cells were washed with PBS and resuspended in 1× assay buffer containing Annexin V FITC and propidium iodide (PI). Annexin V detects apoptotic cells, and PI stains dead cells. After staining, apoptotic cells show green fluorescence, dead cells show red and green fluorescence, and live cells show little or no fluorescence. Cells were selected for analysis based on forward scatter (FSC) vs. side scatter (SSC), and analyzed by BD Accuri C6 Plus flow cytometer to detect Annexin V-FITC binding (Ex=488 nm; Em=530 nm) using FITC signal detector and PI staining by the phycoerythrin emission signal detector. Percentage of Annexin V^low and PI^low were quantified and presented as % Viability.

[2] = tested on: U251 GBM cells; test: Annexin V/PI cell viability assay in U251 cells; type: cell-based; settings: 48-hour incubation, read-out: EC50 (μM) of ATF-5-Derived Polypeptides in Cancer Cells, U251
Protocol: as §1
(§2) Alternatively, adherent U251 or U87 cells were set at a density of 3.5×10^3 cells/well in 150 μL of media on day −1. On day 0, media was removed and replenished with 150 μL of fresh media, and cells were treated with ST-3 as described. […] Cell viability was determined as described above for suspension cells.

[3] = tested on: U87 cells; test: Annexin V/PI cell viability assay in U87 cells; type: cell-based; settings: 48-hour incubation, read-out: EC50 (μM) of ATF-5-Derived Polypeptides in Cancer Cells, U87
Protocol: as §1, §2

[4] = tested on: T98G GBM cells
Protocol: (§3) T98G cells were set at a density of 2×10^3/well in 200 μL of RPMI+1.5% fetal bovine serum (FBS) in black-walled Nunc™ MicroWell™ 96-Well Optical-Bottom Plates with Polymer Base.
(§4) On day −1, adherent T98G cells were washed of complete media (RPMI+10% FBS) with 6 mL Dulbecco's Phosphate Buffered Saline (DPBS), and dissociated from T25 Nunclon™ Delta flask with 2 mL trypsin at room temperature. Trypsin was quenched with 6 mL complete media, and cells were resuspended in fresh complete media at a concentration of 1×10^6 cells/mL. Cells were then adjusted to a concentration of 1×10^4 cells/mL in RPMI+1.5% FBS, and 200 μL of culture was added to each well (B2 to G11) of a Nunc™ 96-well Flat Bottom Black Polystyrol Clear Bottom plate to a final cell concentration of 2×10^3 cells/well. Cells were set in an incubator at 37° C. and 5% CO2 with humidity for 24 hours.
(§5) On day 0, 100 μL of media was removed from each well.
(§6) On day 3, media was removed from wells, and wells were washed with 100 μL DPBS. Cells were resuspended in 100 μL RPMI+10% FBS. CellTiter-Blue® Cell Viability Assay (Promega Corp., Madison, Wis.) was performed by adding 20 μL of CellTiter-Blue® reagent to each well. Plates were returned to the incubator at 37° C. and 5% CO2 with humidity for 1.5-2 hours. CellTiter-Blue® assay results were read by Eppendorf PlateReader AF2200 at Ex. 535 nm/Em. 595 nm according to manufacturer's instructions. Data is presented as % Viability. Cell viability was calculated as (Sample value/Buffer control value)×100. EC50 values were calculated using GraphPad Prism v.7 XML.

[5] = tested on: T98G GBM cells; test: CellTiter-Blue cell viability assay in T98G cells; settings: read-out: EC50 (μM) of ATF-5-Derived Polypeptides in Cancer Cells, T98G, 72 hours
Protocol: as §3, §4, §5, §6

[6] = tested on: neoplastic cells; settings: systemically administered; cited from earlier work
[7] = tested on: U87 cells; test: Apo-ONE caspase 3/7 activation assay in U87 glioblastoma cells; type: cell-based
Protocol: Activation of caspase enzymes occurs in the early stages of apoptosis. In this Example, we investigated the effect on caspase activation of ST-3 in combination with the Bcl-2 inhibitor ABT-263 (Navitoclax). U87 cells were prepared as described in Example 2 for T98G cells. Lyophilized ST-3 was freshly reconstituted in Tris Buffer at a concentration of 5 mg/mL, and adjusted to a working concentration of 200 μM. ST-3 was added to cells in 100 μL Tris Buffer at a final concentration range of 0-20 μM. […] Plates were incubated at ambient temperature in the dark for 1.5-2 hours. Fluorescence was recorded by Eppendorf PlateReader AF2200 at Ex. 485 nm/Em. 527 nm.

Compound | EC50 [1] [µM] | EC50 [2] [µM] | EC50 [3] [µM] | EC50 [5] [µM] | also measured
RQIKIWFQNRRMKWKKLEGECQGLEARNRELKERAESV [ST-3] | 16 | 42 | 45 | 69 | cytotoxic activity compared to ST-2 [4]: unexpectedly superior cytotoxic activity over ST-2
RQIKIWFQNRRMKWKKLEQRAEELARENEELLEKEAEELEQENAELEGECQGLEARNRELRERAESV [ST-2] | > 200 | > 200 | > 200 | > 200 | blood-brain barrier crossing, cell entry and apoptosis of neoplastic cells [6]: can cross the blood-brain barrier, enter cells, and selectively trigger the apoptotic death of neoplastic cells
CC1(C)CCC(c2ccc(Cl)cc2)=C(CN2CCN(c3ccc(C(=O)NS(=O)(=O)c4ccc(N[C@H](CCN5CCOCC5)CSc5ccccc5)c(S(=O)(=O)C(F)(F)F)c4)cc3)CC2)C1 [ABT-263, ABT-263 (Navitoclax)] | – | – | – | – | % Caspase Activation, ABT-263 alone ([7]; ST-3 0 μM, ABT-263 0.5 μM, % of positive control): 15.5% and 15.32%
YGRKKRRQRRLEGECQGLEARNRELKERAESV [ATF5 Polypeptide with Tat CPP] | – | – | – | – | cytotoxic activity ([1]; HL-60 cell viability assay): has cytotoxic activity
CN[C@@H]1C[C@H]2O[C@@](C)([C@@H]1OC)n1c3ccccc3c3c4c(c5c6ccccc6n2c5c31)C(=O)NC4 [Positive Control, staurosporine] | – | – | – | – | % Caspase Activation, positive control ([7]; staurosporine 10 μM, reference set to 100): 100%

Reference: patent US10316077B2, “Cell-penetrating ATF5 polypeptides and uses thereof” (Sapience Therapeutics, Inc., priority 2017, dated 2019)
